Source: patent US20110070575A1, “Immunomodulatory Compositions, Combinations and Methods” (Coley Pharmaceutical Group, Inc., priority 2004, published 2011)
Entries after “also recorded” stand apart in the source; their conditions may differ. Oligonucleotides are written 5' to 3', each unit as a sugar letter and its base; * is a phosphorothioate linkage, no mark a phosphodiester; rarer units and linkages stand in square brackets, end groups in braces. Plain capitals give the bases only. d = 2'-deoxy (DNA)

Target: T1, Human TLR7 (Homo sapiens, UniProt Q9NYK1)
T1 construct: expressed in transfected cells; host or cells: HEK293 (ATCC No. CRL-1573)
T1 sequence (Q9NYK1 27-1049): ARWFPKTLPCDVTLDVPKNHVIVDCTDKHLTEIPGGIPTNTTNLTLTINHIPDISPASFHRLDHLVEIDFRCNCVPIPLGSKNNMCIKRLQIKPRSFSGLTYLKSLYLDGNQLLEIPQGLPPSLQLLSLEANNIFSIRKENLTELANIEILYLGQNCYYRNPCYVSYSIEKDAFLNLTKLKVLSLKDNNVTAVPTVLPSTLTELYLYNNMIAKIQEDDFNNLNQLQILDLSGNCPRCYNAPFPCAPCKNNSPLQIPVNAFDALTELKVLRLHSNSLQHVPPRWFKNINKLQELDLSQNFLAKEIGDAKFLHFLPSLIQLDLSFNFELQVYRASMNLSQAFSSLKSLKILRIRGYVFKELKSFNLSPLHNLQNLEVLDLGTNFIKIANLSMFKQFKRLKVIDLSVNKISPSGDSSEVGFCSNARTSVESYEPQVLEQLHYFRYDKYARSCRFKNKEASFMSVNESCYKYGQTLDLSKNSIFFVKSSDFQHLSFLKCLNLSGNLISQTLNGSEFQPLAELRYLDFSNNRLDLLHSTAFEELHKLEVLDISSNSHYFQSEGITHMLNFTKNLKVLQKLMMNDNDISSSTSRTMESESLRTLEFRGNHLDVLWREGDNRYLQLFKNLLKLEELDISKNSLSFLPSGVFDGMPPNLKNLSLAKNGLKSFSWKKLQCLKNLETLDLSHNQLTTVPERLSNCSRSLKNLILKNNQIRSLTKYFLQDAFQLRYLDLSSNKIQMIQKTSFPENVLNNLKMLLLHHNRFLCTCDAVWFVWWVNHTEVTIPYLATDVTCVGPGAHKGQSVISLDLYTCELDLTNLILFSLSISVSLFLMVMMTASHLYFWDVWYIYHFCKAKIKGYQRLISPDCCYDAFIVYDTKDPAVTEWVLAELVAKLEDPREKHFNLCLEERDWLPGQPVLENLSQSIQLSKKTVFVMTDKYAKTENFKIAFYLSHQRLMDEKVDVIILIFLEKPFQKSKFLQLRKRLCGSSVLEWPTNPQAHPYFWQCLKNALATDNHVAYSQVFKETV
Assay: NFκB luciferase induction in HEK293 cells transfected with human TLR7
Type: cell-based
Settings: transfected HEK293 cell line; poly(T), poly(A) or poly(C) oligonucleotide with 3 μM IRM1; overnight
Description: Human TLR7 and NFκβ were transfected into human epithelial kidney 293 (HEK293, American Type Culture Collection, Manassas, Va., ATCC No. CRL-1573) cells as described in U.S. Patent Publication Nos. U82004/0014779 and US2004/0171086. The selected transfected cells were counted and resuspended to a concentration of 5×10^5 cell per mL in culture media.
Cultured media was prepared from complete DMEM media (Biosource International Inc., Camarillo, Calif.), without phenol red. Fetal bovine serum (Biosource International Inc.) was added to a final concentration of 10% (vol/vol.), sodium pyruvate (Biosource International Inc.) was added to 1 mM; L-glutamine (Biosource International Inc.) was added to 2 mM; penicillin (Biosource International Inc.) was added to 100 U/mL; streptomycin (Biosource International Inc.) was added to 100 μg/mL.
100 μL aliquots of cells were placed in the wells of a white-walled, white-bottomed 96-well plate (Corning, Inc. Corning, N.Y.). […] As a negative control, some cell aliquots were incubated without a stimulus (media control). In all cases, the cells were incubated overnight at 37° C. with 5% CO2 and 98% humidity.
After the cells incubated overnight, 100 μL volume of reconstituted LucLight Plus (Packard Instruments, Meriden, Conn.) was added to each aliquot of cells. Each well of the plate was read on a L-max luminometer (Molecular Devices, Sunnyvale, Calif.). The data is expressed as fold increase of luciferase induction in cell aliquots incubated with the indicated stimulant compared to the negative control.
HEK293 cells expressing human TLR7 were prepared as described in Example 1. […] As a negative control, some cell aliquots were incubated without a stimulus (media control).
After the cells incubated overnight, the cells were analyzed as described in Example 1. The data is expressed as fold increase of luciferase induction in cell aliquots incubated with the indicated stimulant compared to the negative control.

Substance: poly(T): 18-mer poly(T) oligonucleotide, 5′-TTTTTTTTTTTTTTTTTT-3′
- inhibition of smIRM-induced TLR7-mediated biological activity (fold increase of luciferase induction): inhibition; also recorded: capable of limiting TLR7-mediated biological activity

Substance: poly(A): 18-mer poly(A) oligonucleotide, 5′-AAAAAAAAAAAAAAAAAA-3′ (dA*dA*dA*dA*dA*dA*dA*dA*dA*dA*dA*dA*dA*dA*dA*dA*dA*dA)
- inhibition of smIRM-induced TLR7-mediated biological activity (fold increase of luciferase induction): inhibition; also recorded: capable of limiting TLR7-mediated biological activity
